Measured values from publication doi:10.1101/2021.02.21.432137v1 (biorxiv, 2021).
Read-outs that look alike come from different tables or passages of the source.

What was measured:
[1] = target: T1, NanoLuc-STK3 (STK3-NanoBRET) (Homo sapiens, UniProt Q13188); assay: NanoBRET tracer displacement in live cells; format: cell-based
T1 sequence (Q13188 1-491): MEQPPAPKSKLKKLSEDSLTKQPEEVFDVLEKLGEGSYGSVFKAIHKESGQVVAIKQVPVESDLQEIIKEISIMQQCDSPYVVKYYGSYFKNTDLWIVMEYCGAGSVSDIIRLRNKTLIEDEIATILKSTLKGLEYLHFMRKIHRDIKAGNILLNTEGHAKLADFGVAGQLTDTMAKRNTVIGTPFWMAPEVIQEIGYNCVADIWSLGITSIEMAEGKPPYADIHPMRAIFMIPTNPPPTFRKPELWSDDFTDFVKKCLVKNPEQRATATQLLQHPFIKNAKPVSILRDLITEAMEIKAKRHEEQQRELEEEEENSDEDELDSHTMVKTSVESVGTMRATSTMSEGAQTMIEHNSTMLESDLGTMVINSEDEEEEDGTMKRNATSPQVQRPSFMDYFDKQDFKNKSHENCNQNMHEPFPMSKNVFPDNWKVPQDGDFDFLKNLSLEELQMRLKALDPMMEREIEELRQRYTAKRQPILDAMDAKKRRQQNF

[2] = target: human recombinant STK24 (aka MST3) (Homo sapiens, UniProt Q9Y6E0); settings: inhibitor
[3] = target: T2, human recombinant STK3 (MST2) (Homo sapiens, UniProt Q13188); settings: inhibitor
T2 sequence (Q13188 1-491 limits assumed): T1 sequence (Q13188 1-491)

[4] = target: human recombinant STK26 (aka MST4) (Homo sapiens, UniProt Q9P289); settings: inhibitor
[5] = target: T3, human recombinant STK4 (Homo sapiens, UniProt Q13043); settings: inhibitor
T3 sequence (Q13043 1-487): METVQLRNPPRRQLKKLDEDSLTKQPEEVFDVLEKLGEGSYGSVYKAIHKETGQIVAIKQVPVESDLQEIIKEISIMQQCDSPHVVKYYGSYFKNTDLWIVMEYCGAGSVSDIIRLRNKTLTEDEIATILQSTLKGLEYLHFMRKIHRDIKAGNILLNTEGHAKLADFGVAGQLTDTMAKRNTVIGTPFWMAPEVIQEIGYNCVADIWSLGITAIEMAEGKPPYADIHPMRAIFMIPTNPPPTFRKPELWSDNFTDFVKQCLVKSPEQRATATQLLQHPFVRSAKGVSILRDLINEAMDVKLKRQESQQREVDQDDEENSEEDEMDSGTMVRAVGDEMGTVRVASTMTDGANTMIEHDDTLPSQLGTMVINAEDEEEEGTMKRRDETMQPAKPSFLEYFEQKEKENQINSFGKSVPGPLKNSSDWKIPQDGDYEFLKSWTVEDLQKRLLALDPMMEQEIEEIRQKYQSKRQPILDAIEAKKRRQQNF

[6] = target: T2, human recombinant STK3 (MST2); assay: radiometric kinase assay; format: biochemical

Chain of human recombinant STK24 (aka MST3) (Q9Y6E0 whole entry): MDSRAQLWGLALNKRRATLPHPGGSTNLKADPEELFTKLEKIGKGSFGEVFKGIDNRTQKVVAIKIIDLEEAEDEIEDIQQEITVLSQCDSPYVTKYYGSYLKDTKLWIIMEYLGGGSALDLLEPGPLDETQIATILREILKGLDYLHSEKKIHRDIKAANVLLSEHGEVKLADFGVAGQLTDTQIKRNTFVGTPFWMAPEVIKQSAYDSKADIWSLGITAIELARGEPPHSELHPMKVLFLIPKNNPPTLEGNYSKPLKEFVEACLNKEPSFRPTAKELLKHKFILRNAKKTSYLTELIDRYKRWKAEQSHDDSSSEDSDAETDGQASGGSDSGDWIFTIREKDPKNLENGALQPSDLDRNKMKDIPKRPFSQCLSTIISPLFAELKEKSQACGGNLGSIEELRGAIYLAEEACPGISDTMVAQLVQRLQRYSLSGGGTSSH
Chain of human recombinant STK26 (aka MST4) (Q9P289 2-416): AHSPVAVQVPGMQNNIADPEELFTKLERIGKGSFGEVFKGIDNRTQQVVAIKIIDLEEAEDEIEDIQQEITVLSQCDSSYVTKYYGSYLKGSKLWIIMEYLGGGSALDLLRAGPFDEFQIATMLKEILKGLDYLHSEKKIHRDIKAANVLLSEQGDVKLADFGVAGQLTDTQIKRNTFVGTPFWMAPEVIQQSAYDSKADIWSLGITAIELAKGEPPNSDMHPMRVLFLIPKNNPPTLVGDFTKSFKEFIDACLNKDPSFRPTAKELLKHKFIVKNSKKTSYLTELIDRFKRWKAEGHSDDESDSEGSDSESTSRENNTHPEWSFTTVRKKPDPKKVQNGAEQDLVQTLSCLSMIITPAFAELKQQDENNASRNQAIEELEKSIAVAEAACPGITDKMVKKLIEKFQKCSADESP

IC50 [1] [µM]	MST3 % activity remaining (1µM) [2] [%]	MST4 % activity remaining (1µM) [4] [%]	STK4 % activity remaining (1µM) [5] [%]	Structure (SMILES)	also measured
> 10				CNS(=O)(=O)CCNC(=O)c1c[nH]c2ncc(C3CC3)nc12 [A11, UNC-BE4-033]	
	31	74	26	COCCCNC(=O)c1c[nH]c2ncc(C3CC3)nc12 [A6]	STK3 % activity remaining (1µM) [3]: 44%
> 10				O=C(c1c[nH]c2ncc(C3CC3)nc12)N1CCOCC1 [A13, UNC-BE4-036]	
	60	71	36	CNS(=O)(=O)CCNC(=O)c1c[nH]c2ncc(C3CC3)nc12 [A11]	STK3 % activity remaining (1µM) [3]: 89%
> 10				COCCCNC(=O)c1c[nH]c2ncc(C3CC3)nc12 [A6, UNC-BE4-032]	
9.2				C[C@H](NC(=O)c1c[nH]c2ncc(C3CC3)nc12)C(C)(C)O [A2, UNC-BE4-018]	IC50 [6]: 0.195 µM
	85	82	84	O=C(c1c[nH]c2ncc(C3CC3)nc12)N1CCOCC1 [A13]	STK3 % activity remaining (1µM) [3]: 138%
> 10				CS(=O)(=O)N1CCN(C(=O)c2c[nH]c3ncc(C4CC4)nc23)CC1 [A9, UNC-BE4-031]	
	92	106	98	CS(=O)(=O)N1CCN(C(=O)c2c[nH]c3ncc(C4CC4)nc23)CC1 [A9]	STK3 % activity remaining (1µM) [3]: 82%
	12	54	7	C[C@H](NC(=O)c1c[nH]c2ncc(C3CC3)nc12)C(C)(C)O [A2]	STK3 % activity remaining (1µM) [3]: 15%

More lines, now with the values behind:

Structure (SMILES)	IC50 [1] [µM]	MST3 % activity remaining (1µM) [2] [%]	MST4 % activity remaining (1µM) [4] [%]	STK4 % activity remaining (1µM) [5] [%]	also measured
CN(C)c1ncnc2[nH]cc(-c3cccc(C#N)c3)c12 [B1, UNC-SOB-5-16]	4.3				IC50 [6]: 0.113 µM
COc1cccc([C@H](C)NC(=O)c2c[nH]c3ncc(-c4ccccc4)nc23)c1 [A5, UNC-BE4-040-1]					IC50 ([1]; read-out: NB IC50, NanoBRET Tracer K10 at […], live HEK-293 cells): > 10 µM; IC50 ([6]; ATP at Km, myelin basic protein substrate): 0.391 µM
C[C@H](NC(=O)c1c[nH]c2ncc(-c3ccccc3)nc12)C(C)(C)O [A4, UNC-BE4-36-1]	2.1				IC50 [6]: 0.124 µM
C[C@H](NC(=O)c1c[nH]c2ncc(-c3ccccc3)nc12)C(C)(C)C [A3]		6	27	2	
C[C@H](NC(=O)c1c[nH]c2ncc(-c3ccccc3)nc12)C(C)(C)C [A3, UNC-BE4-035]	2				IC50 [6]: 0.007 µM
COc1cccc([C@H](C)NC(=O)c2c[nH]c3ncc(-c4ccccc4)nc23)c1 [A5]		21	74	39	
CN1C(=O)c2sccc2N(C)c2nc(Nc3ccc(S(N)(=O)=O)cc3)ncc21 [XMU-MP-1]		15	40	14	
C[C@H](NC(=O)c1c[nH]c2ncc(-c3ccccc3)nc12)C(C)(C)O [A4]		9	51	4	
